Measurements: ChEMBL document CHEMBL1201862, “PubChem BioAssay data set” (2004)
Activity calls are given as the source filed them.

Columns and labels:
[1] = target: T1, Neuropeptide Y receptor type 1 (Homo sapiens, UniProt P25929); format: functional;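 further: HEK293 cells with a CNG channel challenged with NPY then isoproterenol; potency as antagonist that reverses NPY suppression of cAMP signal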
T1 sequence (P25929 whole entry): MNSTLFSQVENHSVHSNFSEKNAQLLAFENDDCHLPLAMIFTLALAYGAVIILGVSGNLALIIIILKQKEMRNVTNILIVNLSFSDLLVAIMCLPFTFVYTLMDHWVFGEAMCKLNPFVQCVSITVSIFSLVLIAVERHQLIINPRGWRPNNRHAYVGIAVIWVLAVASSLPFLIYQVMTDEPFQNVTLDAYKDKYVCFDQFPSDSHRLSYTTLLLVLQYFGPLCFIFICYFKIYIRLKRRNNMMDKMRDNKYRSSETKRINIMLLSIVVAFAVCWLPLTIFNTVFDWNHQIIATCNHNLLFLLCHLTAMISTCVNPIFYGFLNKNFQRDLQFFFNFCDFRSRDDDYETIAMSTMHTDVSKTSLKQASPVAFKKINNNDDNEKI

[2] = target: T2, Neuropeptide Y receptor type 2 (Homo sapiens, UniProt P49146); format: functional, cell-based;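 further: HEK293 cells expressing the receptor and a CNG channel; stimulus was NPY near EC95 followed by isoproterenol to raise cAMP; antagonist potency measured as restoring cAMP signal that NPY suppresses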
T2 sequence (P49146 whole entry): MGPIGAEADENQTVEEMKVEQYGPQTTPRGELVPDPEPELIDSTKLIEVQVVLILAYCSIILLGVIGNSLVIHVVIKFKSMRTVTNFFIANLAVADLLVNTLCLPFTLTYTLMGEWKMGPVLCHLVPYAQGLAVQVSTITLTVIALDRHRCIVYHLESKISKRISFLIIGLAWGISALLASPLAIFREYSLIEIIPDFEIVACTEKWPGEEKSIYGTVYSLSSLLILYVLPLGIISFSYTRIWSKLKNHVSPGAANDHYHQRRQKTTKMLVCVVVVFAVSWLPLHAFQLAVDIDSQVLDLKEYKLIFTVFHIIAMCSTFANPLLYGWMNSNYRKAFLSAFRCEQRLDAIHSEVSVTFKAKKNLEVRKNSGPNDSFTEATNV

Bcl-2-like protein 10 = target: T3, Bcl-2-like protein 10 (Homo sapiens, UniProt Q9HD36); assay: Concentration-response of Bcl-B inhibitors by biochemical FP with TR3 (AID 1243); format: functional
T3 sequence (Q9HD36 whole entry): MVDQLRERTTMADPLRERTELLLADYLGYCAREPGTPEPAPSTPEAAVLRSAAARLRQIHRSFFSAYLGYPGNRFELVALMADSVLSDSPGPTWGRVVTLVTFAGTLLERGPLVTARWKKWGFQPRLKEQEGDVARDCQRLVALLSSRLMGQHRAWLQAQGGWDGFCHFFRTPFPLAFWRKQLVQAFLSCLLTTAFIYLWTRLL

[3] = target: Induced myeloid leukemia cell differentiation protein Mcl-1 (Homo sapiens, UniProt Q07820); format: functional
Induced myeloid leukemia cell differentiation protein Mcl-1, sequence (Q07820 whole entry, the tested form may be a part): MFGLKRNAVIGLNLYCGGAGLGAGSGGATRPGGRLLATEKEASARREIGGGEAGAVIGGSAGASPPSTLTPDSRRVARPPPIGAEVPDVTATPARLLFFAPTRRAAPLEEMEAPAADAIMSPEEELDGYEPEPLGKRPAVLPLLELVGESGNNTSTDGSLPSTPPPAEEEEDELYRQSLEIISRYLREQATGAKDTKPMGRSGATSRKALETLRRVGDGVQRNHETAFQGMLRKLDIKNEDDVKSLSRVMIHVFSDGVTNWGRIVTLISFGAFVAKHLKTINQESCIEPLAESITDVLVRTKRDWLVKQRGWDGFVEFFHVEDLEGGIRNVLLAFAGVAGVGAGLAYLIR

[4] = target: T4, Sentrin-specific protease 1 (Homo sapiens, UniProt Q9P0U3); assay: SENP1 catalytic domain blockers, concentration series – biochemical, kinetic FRET, dose response (AID 651697); format: functional; settings: read-out: IC50_Mean
T4 sequence (Q9P0U3 whole entry): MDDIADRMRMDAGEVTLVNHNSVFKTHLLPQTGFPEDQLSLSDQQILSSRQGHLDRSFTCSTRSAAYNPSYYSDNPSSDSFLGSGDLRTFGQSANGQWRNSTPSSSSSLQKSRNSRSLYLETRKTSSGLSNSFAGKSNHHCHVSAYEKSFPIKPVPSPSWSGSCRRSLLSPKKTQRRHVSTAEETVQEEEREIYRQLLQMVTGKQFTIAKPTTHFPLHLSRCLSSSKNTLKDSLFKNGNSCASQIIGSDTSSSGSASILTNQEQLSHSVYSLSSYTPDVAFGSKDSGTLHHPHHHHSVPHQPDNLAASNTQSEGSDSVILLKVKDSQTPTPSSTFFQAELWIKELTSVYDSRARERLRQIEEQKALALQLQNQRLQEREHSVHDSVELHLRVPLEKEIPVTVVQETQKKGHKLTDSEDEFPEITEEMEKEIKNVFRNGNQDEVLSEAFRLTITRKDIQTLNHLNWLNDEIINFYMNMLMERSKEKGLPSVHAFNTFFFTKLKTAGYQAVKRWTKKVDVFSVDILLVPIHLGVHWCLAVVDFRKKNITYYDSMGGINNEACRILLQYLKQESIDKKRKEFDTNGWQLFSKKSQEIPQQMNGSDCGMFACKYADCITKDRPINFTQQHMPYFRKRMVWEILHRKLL

[5] = target: T5, Corticotropin-releasing factor receptor 2/Corticotropin-releasing factor-binding protein (Homo sapiens, UniProt P24387+Q13324); assay: activators of CRF receptor 2 with binding protein – uHTS hits, confirmation (AID 602473); format: functional; settings: read-out: EC50_Mean
T5 sequence (Q13324 whole entry): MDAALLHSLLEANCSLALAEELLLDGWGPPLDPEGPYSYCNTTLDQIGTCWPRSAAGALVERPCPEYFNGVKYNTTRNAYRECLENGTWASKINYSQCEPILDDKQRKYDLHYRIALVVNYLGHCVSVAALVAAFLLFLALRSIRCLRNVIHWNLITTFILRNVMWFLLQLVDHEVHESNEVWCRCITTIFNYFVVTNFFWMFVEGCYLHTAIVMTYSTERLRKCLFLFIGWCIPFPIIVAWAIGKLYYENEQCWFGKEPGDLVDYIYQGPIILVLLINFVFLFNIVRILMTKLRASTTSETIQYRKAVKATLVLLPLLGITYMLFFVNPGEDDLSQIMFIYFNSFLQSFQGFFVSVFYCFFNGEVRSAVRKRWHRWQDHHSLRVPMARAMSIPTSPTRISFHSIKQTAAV
T5 sequence (P24387 whole entry): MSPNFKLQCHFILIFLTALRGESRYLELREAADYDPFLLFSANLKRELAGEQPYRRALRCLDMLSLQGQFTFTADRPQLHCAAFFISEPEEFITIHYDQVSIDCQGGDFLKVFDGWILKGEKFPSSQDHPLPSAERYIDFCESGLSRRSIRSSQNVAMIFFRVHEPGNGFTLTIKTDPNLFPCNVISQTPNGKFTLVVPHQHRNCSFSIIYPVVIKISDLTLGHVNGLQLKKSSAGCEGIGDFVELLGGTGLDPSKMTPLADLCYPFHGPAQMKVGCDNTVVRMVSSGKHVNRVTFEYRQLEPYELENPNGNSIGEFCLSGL

[6] = antiviral protection against BTV-induced cell death – arbovirus, BSR cells, confirmation (AID 1250); format: functional;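 further: protection from viral cytopathic effect measured as cell viability by ATP luminescence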
[7] = target: T4, Sentrin-specific protease 1; assay: Dose response confirmation of small molecule inhibitors of the catalytic domain of the SUMO protease, SENP1 in a FRET assay.; format: functional; settings: read-out: IC50_Mean
[8] = target: T5, Corticotropin-releasing factor receptor 2/Corticotropin-releasing factor-binding protein; assay: Dose Response confirmation of uHTS hits for small molecule antagonists of the CRF-binding protein and CRF-R2 receptor complex.; format: functional; settings: read-out: IC50_Mean
HeLa = assay: Cytotoxicity counterscreen assay for transcriptional activators of heat shock protein 70 (Hsp70). [Related pubchem assays: 1203, 1252 ]; format: functional; settings: Homo sapiens;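 further: cells exposed to compound for 16 hours before readout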
Mucolipin-3 = Mucolipin-3 (Homo sapiens, UniProt Q8TDD5); assay: Dose response cell-based high-throughput screening assay for agonists of the transient receptor potential channel ML3 (TRPML3). [Related pubchem assays: 1526, 1424, 1448 ]; format: functional
Mucolipin-3, sequence (Q8TDD5 whole entry): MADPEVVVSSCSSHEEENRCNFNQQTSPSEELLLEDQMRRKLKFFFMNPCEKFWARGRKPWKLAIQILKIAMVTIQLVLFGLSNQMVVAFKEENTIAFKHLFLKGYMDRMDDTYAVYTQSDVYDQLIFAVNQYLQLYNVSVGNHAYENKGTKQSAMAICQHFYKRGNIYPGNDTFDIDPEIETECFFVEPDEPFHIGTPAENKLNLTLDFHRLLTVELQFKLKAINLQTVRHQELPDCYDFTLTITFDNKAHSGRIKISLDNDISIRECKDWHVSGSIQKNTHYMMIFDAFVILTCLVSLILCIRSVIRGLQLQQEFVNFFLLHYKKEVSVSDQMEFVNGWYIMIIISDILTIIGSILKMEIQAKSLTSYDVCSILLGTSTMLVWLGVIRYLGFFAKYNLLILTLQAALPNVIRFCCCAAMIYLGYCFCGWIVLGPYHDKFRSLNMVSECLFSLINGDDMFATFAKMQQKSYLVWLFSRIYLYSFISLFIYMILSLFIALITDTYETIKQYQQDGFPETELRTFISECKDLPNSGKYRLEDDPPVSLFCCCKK

Ion channel NompC = Ion channel NompC (Danio rerio, UniProt Q7T1G6); assay: Fluorescence counterscreen assay for TRPML3 agonists: dose response cell-based high-throughput screening assay to identify agonists of the transient receptor potential channel N1 (TRPN1). [Related pubchem assays: 1526, 1424, 1448 ]; format: functional
Ion channel NompC, sequence (Q7T1G6 whole entry, the tested form may be a part): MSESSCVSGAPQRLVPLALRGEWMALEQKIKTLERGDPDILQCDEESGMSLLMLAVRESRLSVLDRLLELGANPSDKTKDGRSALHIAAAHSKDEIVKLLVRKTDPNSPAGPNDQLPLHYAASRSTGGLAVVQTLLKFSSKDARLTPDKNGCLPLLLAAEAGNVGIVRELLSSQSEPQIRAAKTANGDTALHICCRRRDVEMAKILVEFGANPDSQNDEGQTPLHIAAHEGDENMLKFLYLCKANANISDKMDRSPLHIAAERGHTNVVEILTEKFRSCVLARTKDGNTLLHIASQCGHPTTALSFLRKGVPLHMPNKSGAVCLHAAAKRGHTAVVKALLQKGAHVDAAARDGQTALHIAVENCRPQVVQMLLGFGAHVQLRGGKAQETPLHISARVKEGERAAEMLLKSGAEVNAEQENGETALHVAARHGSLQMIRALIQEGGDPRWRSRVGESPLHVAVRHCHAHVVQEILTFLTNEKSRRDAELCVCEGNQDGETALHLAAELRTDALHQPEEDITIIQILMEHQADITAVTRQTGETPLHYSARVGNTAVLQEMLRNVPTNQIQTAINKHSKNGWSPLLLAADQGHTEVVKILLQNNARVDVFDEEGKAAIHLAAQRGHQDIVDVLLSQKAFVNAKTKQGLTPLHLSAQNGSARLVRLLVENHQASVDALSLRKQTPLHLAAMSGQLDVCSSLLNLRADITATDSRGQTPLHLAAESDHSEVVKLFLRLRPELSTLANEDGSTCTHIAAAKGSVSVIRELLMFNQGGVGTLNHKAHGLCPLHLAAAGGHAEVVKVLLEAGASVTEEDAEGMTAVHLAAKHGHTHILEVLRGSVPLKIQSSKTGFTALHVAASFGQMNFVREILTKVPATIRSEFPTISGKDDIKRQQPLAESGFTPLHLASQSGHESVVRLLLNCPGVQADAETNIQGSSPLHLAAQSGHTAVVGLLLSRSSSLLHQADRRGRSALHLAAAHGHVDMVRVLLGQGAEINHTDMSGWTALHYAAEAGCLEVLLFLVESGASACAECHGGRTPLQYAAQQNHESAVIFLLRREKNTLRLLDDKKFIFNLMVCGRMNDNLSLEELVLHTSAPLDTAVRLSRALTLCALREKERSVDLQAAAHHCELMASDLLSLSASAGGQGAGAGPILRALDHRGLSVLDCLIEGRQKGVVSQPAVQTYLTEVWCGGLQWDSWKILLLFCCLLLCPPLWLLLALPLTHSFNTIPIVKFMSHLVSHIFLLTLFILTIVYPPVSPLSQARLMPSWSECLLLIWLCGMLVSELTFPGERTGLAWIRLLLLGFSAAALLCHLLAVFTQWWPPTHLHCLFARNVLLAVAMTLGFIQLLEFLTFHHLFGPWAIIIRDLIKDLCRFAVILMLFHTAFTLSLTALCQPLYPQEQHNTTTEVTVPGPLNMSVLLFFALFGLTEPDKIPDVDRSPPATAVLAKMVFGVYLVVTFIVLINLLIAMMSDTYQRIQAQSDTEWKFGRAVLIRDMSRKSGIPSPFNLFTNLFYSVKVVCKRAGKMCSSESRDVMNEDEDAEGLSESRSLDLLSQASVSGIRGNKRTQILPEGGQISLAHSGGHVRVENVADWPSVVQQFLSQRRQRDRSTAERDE

[9] = target: Photoreceptor-specific nuclear receptor (Homo sapiens, UniProt Q9Y5X4); format: functional, cell-based;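 further: CHO-S cells with Gal4-NCOR and VP16-NR2E3 two-hybrid luciferase reporter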
Photoreceptor-specific nuclear receptor, sequence (Q9Y5X4 whole entry, the tested form may be a part): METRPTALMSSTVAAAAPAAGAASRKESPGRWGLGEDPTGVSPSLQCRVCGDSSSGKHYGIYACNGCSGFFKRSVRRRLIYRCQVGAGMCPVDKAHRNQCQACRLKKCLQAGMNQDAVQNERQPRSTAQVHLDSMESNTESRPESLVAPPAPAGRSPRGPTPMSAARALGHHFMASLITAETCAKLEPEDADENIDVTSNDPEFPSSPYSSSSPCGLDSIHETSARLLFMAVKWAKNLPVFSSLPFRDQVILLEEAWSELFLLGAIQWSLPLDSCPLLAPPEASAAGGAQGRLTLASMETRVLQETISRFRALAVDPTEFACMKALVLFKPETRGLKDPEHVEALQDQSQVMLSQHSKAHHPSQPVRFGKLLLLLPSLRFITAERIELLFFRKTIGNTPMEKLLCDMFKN

Protein RecA = target: T6, Protein RecA (Mycobacterium tuberculosis, UniProt P9WHJ3); assay: Fluorescence Cell-Free Homogeneous Dose Retest to Identify Inhibitors of RecA-Intein Splicing Activity. [Related pubchem assays (depositor defined):AID2097, AID2223, AID489010, AID492950]; format: functional
T6 sequence (P9WHJ3 whole entry): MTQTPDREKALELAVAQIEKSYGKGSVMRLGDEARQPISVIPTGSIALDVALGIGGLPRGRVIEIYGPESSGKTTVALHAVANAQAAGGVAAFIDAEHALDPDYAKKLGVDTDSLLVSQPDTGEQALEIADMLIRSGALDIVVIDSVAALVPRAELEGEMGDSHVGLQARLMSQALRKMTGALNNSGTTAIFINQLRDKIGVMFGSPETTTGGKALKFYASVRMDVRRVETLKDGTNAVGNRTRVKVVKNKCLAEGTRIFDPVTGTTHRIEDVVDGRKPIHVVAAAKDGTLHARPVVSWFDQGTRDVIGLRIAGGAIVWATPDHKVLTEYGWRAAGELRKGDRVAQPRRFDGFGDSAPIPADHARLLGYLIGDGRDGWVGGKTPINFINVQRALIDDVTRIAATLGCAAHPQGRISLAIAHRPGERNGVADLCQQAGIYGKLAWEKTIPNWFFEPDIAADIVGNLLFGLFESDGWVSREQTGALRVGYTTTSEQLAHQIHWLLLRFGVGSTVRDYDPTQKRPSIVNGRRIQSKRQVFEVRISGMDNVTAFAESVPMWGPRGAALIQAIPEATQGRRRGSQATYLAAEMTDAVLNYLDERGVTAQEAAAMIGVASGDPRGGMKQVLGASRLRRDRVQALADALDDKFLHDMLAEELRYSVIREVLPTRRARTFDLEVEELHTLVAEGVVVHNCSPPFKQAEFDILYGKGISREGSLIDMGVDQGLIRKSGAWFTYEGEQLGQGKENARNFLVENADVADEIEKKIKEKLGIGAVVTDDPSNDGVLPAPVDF

[10] = reduced cellular PGC1a acetyl-lysine signal – cell-based, cherry-picked samples, dose response (AID 720514); format: functional;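 further: potency may reflect raised or lowered acetylation signal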
[11] = target: T7, Sphingosine 1-phosphate receptor 4 (Homo sapiens, UniProt O95977); assay: Fluorescence dose response cell-based high throughput screening assay for antagonists of the Sphingosine 1-Phosphate Receptor 4 (S1P4). [Related pubchem assays: 1524 (Confirmation in triplicates.), 1510 (Primary screen.)]; format: functional
T7 sequence (O95977 whole entry): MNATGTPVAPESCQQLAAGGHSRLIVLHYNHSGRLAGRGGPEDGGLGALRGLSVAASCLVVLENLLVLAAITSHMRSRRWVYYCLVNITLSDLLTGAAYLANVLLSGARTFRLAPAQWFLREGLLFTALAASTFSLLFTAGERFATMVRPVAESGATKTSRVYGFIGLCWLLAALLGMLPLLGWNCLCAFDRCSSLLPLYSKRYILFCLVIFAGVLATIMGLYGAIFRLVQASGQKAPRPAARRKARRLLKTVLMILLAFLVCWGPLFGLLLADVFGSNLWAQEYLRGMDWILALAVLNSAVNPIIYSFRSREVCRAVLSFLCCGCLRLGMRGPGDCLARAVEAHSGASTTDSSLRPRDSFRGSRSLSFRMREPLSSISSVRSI

[12] = target: Sphingosine 1-phosphate receptor 2 (Homo sapiens, UniProt O95136); assay: Dose Response Cell Based Assay for Antagonists of the S1P2 Receptor. [Related pubchem assays: 856, 736 ]; format: functional
Sphingosine 1-phosphate receptor 2, sequence (O95136 whole entry): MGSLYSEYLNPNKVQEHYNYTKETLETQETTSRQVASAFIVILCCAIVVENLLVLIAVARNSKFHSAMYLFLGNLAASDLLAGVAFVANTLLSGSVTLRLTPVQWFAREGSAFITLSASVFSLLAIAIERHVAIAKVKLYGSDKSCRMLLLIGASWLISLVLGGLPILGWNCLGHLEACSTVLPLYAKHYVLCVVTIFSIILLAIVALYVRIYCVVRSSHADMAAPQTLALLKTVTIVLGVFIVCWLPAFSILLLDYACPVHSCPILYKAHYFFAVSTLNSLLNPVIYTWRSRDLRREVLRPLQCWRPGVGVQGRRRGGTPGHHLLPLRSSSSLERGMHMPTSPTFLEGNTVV

[13] = target: T7, Sphingosine 1-phosphate receptor 4; assay: Late stage fluorescence dose response cell-based screening assay for antagonists of the Sphingosine 1-Phosphate Receptor 4 (S1P4). [Related pubchem assays: 1524 (Confirmation screen (S1P4 antagonists).), 1510 (Primary screen (S1P4 antagonists).), 1853 (Summary AID (S1P4 antagonists).), 1692 (Dose response screen (S1P4 antagonists).)]; format: functional
[14] = target: T8, Replicative DNA helicase DnaB (Mycobacterium tuberculosis, UniProt P9WMR3); assay: DnaB intein splicing inhibitors, dose response, biochemical, cell-free fluorescence (AID 449749); format: functional
T8 sequence (P9WMR3 whole entry): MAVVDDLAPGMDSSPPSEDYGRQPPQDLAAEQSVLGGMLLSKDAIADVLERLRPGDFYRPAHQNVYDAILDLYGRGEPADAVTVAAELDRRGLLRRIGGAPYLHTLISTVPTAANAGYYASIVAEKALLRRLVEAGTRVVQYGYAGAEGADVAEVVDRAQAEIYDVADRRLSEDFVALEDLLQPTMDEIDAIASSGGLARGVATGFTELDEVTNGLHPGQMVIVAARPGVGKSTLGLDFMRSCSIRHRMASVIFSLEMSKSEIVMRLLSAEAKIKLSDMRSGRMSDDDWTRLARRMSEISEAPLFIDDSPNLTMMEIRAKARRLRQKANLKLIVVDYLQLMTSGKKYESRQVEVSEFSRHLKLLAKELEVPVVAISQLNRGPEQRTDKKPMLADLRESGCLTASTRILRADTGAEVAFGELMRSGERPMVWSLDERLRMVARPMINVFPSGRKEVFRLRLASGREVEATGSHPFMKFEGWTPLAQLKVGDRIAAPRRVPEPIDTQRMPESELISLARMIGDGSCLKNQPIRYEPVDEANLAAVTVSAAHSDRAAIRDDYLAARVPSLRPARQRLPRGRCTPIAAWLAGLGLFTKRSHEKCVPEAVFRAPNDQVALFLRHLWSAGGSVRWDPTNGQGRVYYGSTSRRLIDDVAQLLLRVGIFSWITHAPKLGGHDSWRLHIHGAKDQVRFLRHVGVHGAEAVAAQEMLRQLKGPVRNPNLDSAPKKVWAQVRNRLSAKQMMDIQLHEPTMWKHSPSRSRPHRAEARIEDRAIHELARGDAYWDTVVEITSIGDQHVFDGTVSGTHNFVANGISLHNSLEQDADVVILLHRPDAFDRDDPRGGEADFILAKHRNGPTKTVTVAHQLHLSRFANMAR

[15] = target: Sphingosine 1-phosphate receptor 1 (Homo sapiens, UniProt P21453); format: functional;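 further: Tango beta-arrestin reporter U2OS cells stimulated with S1P near its EC80; inhibitor potency meaning antagonism of receptor activation by the natural agonist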
Sphingosine 1-phosphate receptor 1, sequence (P21453 whole entry): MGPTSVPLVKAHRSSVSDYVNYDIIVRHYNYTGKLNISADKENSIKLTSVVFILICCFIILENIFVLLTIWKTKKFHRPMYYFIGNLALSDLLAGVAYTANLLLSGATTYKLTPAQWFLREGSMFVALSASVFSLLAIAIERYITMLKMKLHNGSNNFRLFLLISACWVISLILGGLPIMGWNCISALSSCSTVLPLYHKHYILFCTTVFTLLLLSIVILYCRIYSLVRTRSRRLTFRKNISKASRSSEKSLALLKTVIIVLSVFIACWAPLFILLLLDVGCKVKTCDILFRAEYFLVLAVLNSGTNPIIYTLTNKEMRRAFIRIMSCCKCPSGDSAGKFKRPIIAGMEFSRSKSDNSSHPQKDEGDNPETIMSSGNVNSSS

COc1ccc(-c2nnc3sc(C(C)N4C(=O)c5ccccc5C4=O)nn23)cc1 (configuration not stated)
IC50 [1]: 9.35 µM (active) | IC50 [2]: 6.02 µM (active)

COC(=O)C1=C(C)N(C)C(=O)NC1c1cc2c(cc1[N+](=O)[O-])OCO2 (configuration not stated)
EC50 (Bcl-2-like protein 10): 17.4 µM (active)

COc1ccccc1C1C2=C(N=c3s/c(=C/c4cccc(OCC(=O)O)c4)c(=O)n31)c1ccccc1CC2 (configuration not stated)
IC50 [3]: 2.51 µM (active) | IC50 [4]: 18.9 µM (active) | EC50 [5]: > 53 µM (inactive) | IC50 [6]: 21.3 µM (active) | IC50 [7]: 25.4 µM (inactive) | IC50 [8]: > 47.1 µM (inactive)

COC(=O)Nc1ccc(S(=O)(=O)NCc2ccccn2)cc1
IC50 [3]: 6.18 µM (not active) | CC50 (HeLa): > 99 µM (not active)

Cc1cc(C)cc(N2C(=O)CSC2c2cccs2)c1 (configuration not stated)
EC50 (Mucolipin-3): > 29.9 µM (not active) | EC50 [5]: > 53 µM (inactive) | EC50 (Ion channel NompC): > 29.9 µM (not active)

COc1ccc(NC(=O)/C(Cl)=C(/Cl)S(=O)(=O)Cc2ccccc2)cn1
IC50 [9]: 1.15 µM (active) | EC50 (Protein RecA): 2.79 µM (active) | AC50 [10]: 5.17 µM (active) | IC50 [11]: 0.829 µM (active) | IC50 [12]: 1.76 µM (active) | IC50 [13]: 5.28 µM (not active) | AC50 [14]: 2.44 µM (active) | IC50 [15]: 8.15 µM (active)
